Results from US8071584B2 (GlaxoSmithKline LLC, priority 2007, dated 2011).

Tested on: human monocyte stimulated cytokine production (TNF-α)
Experiment: Monocyte assay (LPS-stimulated TNF-α production)
Format: cell-based
Settings: for IC50: human CD14+ monocytes, 200 ng/mL LPS, 24 hrs, values given as 'about', read-out: pIC50 in the monocyte assay (converted); for inhibition at 0.3 µM: 300 nM, human monocytes, LPS
Method: Effect of IKK-β inhibition on human monocyte stimulated cytokine production was assessed as follows: Monocytes were isolated from heparinized whole blood by Ficoll gradient, followed by purification of CD14+ cells using MACS magnetic cell separation beads. Isolated monocytes were then adhered to 96-well culture plates at 1×10^6 cells/mL in RPMI 1640 10% FBS (JRH Biosciences, Lenexa Kans.) for 2 h. Test compounds are added to the wells 30 minutes prior to stimulation with a final vehicle concentration of 0.1% DMSO. Monocytes were activated by the addition of 200 ng/mL endotoxin (LPS; E. coli serotype 026:B6) (Sigma, St. Louis, Mo.) and incubated for 24 hrs at 37 C. Cell-free supernates were analyzed by Alphascreen™ (Perkin Elmer, Waltham, Mass.) for TNF-α using R&D Systems matched pair Abs. Viability of the cells was determined by 10% trypan blue exclusion.

Row | SMILES | IC50 | inhibition at 0.3 µM
1 | CC1(C)C[C@H](c2c[nH]c3c(C(N)=O)cc(-c4ccc(F)cc4)cc23)CCS1(=O)=O [Example 225, 3-[(4R)-2,2-dimethyl-1,1-dioxidotetrahydro-2H-thiopyran-4-yl]-5-(4-fluorophenyl)-1H-indole-7-carboxamide] | 5.01 to 1000 nM | –
2 | CC1(C)CC(c2c[nH]c3c(C(N)=O)cc(-c4ccc(CN5CCCC5)s4)cc23)CCS1(=O)=O (centres unmarked) [Example 235, 3-(2,2-Dimethyl-1,1-dioxidotetrahydro-2H-thiopyran-4-yl)-5-[5-(1-pyrrolidinylmethyl)-2-thienyl]-1H-indole-7-carboxamide] | 5.01 to 1000 nM | –
3 | CCN(C)Cc1cc(-c2cc(C(N)=O)c3[nH]cc(C4CCS(=O)(=O)CC4)c3c2)cs1 [Example 75, 3-(1,1-Dioxidotetrahydro-2H-thiopyran-4-yl)-5-(5-{[ethyl(methyl)amino]methyl}-3-thienyl)-1H-indole-7-carboxamide] | 5.01 to 1000 nM | –
4 | NC(=O)c1c(F)c(-c2ccccc2)cc2c(C3CCS(=O)(=O)CC3)c[nH]c12 [Example 168, 3-(1,1-Dioxidotetrahydro-2H-thiopyran-4-yl)-6-fluoro-5-phenyl-1H-indole-7-carboxamide] | 5.01 to 1000 nM | –
5 | NC(=O)c1cc(-c2ccccc2)cc2c(C3CC4CCC(C3)S4(=O)=O)c[nH]c12 (stereo not drawn) [Example 192, 3-[(3-endo)-8,8-Dioxido-8-thiabicyclo[3.2.1]oct-3-yl]-5-phenyl-1H-indole-7-carboxamide] | – | 0 to 100%
6 | Cc1n[nH]c(C)c1-c1cc(C(N)=O)c2[nH]cc(C3CCS(=O)(=O)CC3)c2c1 [Example 140, 5-(3,5-Dimethyl-1H-pyrazol-4-yl)-3-(1,1-dioxidotetrahydro-2H-thiopyran-4-yl)-1H-indole-7-carboxamide] | > 1000 nM | –
7 | NC(=O)c1cc(-c2csc(CC3CC3)c2)cc2c(C3CCS(=O)(=O)CC3)c[nH]c12 [Example 97, 5-[5-(Cyclopropylmethyl)-3-thienyl]-3-(1,1-dioxidotetrahydro-2H-thiopyran-4-yl)-1H-indole-7-carboxamide] | 5.01 to 1000 nM | –
8 | NC(=O)c1cc(-c2cccs2)cc2c([C@H]3CCS(=O)(=O)[C@@H](c4ccccc4)C3)c[nH]c12 (racemic) [Example 249, 3-(1,1-Dioxido-2-cis-phenyltetrahydro-2H-thiopyran-4-yl)-5-(2-thienyl)-1H-indole-7-carboxamide] | 5.01 to 1000 nM | –
9 | NC(=O)c1cc(-c2ccsc2)cc2c([C@H]3CCS(=O)(=O)[C@@H](c4ccccc4)C3)c[nH]c12 [Example 248, 3-[(2R,4S)1,1-dioxido-2-phenyltetrahydro-2H-thiopyran-4-yl]-5-(3-thienyl)-1H-indole-7-carboxamide] | > 1000 nM | –
10 | COCc1ccc(-c2cc(C(N)=O)c3[nH]cc(C4CCS(=O)(=O)CC4)c3c2)s1 [Example 98, 3-(1,1-Dioxidotetrahydro-2H-thiopyran-4-yl)-5-{5-[(methyloxy)methyl]-2-thienyl}-1H-indole-7-carboxamide] | 5.01 to 1000 nM | –
11 | COCCN(C)Cc1cc(-c2cc(C(N)=O)c3[nH]cc(C4CCS(=O)(=O)CC4)c3c2)cs1 [Example 71, 3-(1,1-Dioxidotetrahydro-2H-thiopyran-4-yl)-5-[5-({methyl[2-(methyloxy)ethyl]amino}methyl)-3-thienyl]-1H-indole-7-carboxamide] | 5.01 to 1000 nM | –
12 | CN(C)Cc1cc(-c2cc(C(N)=O)c3[nH]cc(C4CCS(=O)(=O)CC4)c3c2)cs1 [Example 73, 5-{5-[(Dimethylamino)methyl]-3-thienyl}-3-(1,1-dioxidotetrahydro-2H-thiopyran-4-yl)-1H-indole-7-carboxamide] | 5.01 to 1000 nM | –
13 | NC(=O)c1cc(-c2ccoc2)cc2c(C3CCCS(=O)(=O)C3)c[nH]c12 (centres unmarked) [Example 217, 3-(1,1-Dioxidotetrahydro-2H-thiopyran-3-yl)-5-(3-furanyl)-1H-indole-7-carboxamide] | – | 0 to 100%
14 | NC(=O)c1cc(-c2csc(CN3CCCCCC3)c2)cc2c(C3CC4CCC(C3)S4(=O)=O)c[nH]c12 (stereo not drawn) [Example 203, 3-[(3-endo)-8,8-Dioxido-8-thiabicyclo[3.2.1]oct-3-yl]-5-[5-(hexahydro-1H-azepin-1-ylmethyl)-3-thienyl]-1H-indole-7-carboxamide] | 5.01 to 1000 nM | –
15 | N#CCc1ccc(-c2cc(C(N)=O)c3[nH]cc(C4CCS(=O)(=O)CC4)c3c2)cc1 [Example 65, 5-[4-(Cyanomethyl)phenyl]-3-(1,1-dioxidotetrahydro-2H-thiopyran-4-yl)-1H-indole-7-carboxamide] | 5.01 to 1000 nM | –
16 | CC(C)[C@H](C)NCc1cccc(-c2cc(C(N)=O)c3[nH]cc(C4CCS(=O)(=O)CC4)c3c2)c1 [Example 80, 5-[3-({[(1S)-1,2-Dimethylpropyl]amino}methyl)phenyl]-3-(1,1-dioxidotetrahydro-2H-thiopyran-4-yl)-1H-indole-7-carboxamide] | 5.01 to 1000 nM | –

Row | SMILES | IC50 | inhibition at 0.3 µM
17 | NC(=O)c1cc(-c2ccsc2)c(F)c2c(C3CCS(=O)(=O)CC3)c[nH]c12 [Example 170, 3-(1,1-Dioxidotetrahydro-2H-thiopyran-4-yl)-4-fluoro-5-(3-thienyl)-1H-indole-7-carboxamide] | 5.01 to 1000 nM | –
18 | CC1(C)C[C@@H](c2c[nH]c3c(C(N)=O)cc(-c4ccc(F)cc4)cc23)CCS1(=O)=O [Example 224, 3-[(4S)-2,2-Dimethyl-1,1-dioxidotetrahydro-2H-thiopyran-4-yl]-5-(4-fluorophenyl)-1H-indole-7-carboxamide] | > 1000 nM | –
19 | CC(C)[C@H]1C[C@H](c2c[nH]c3c(C(N)=O)cc(-c4ccccc4)cc23)CCS1(=O)=O (racemic) [Example 242, racemic-3-[(trans)-2-(1-Methylethyl)-1,1-dioxidotetrahydro-2H-thiopyran-4-yl]-5-phenyl-1H-indole-7-carboxamide] | – | 0 to 100%
20 | CN(CCOC(C)(C)C)Cc1cc(-c2cc(C(N)=O)c3[nH]cc(C4CCS(=O)(=O)CC4)c3c2)cs1 [Example 77, 5-(5-{[{2-[(1,1-Dimethylethyl)oxy]ethyl}(methyl)amino]methyl}-3-thienyl)-3-(1,1-dioxidotetrahydro-2H-thiopyran-4-yl)-1H-indole-7-carboxamide] | – | 0 to 100%
21 | NC(=O)c1cc(-c2cccs2)cc2c(C3CCS(=O)(=O)C3)c[nH]c12 (centres unmarked) [Example 190, 3-(1,1-Dioxidotetrahydro-3-thienyl)-5-(2-thienyl)-1H-indole-7-carboxamide] | 5.01 to 1000 nM | –
22 | CC(C)[C@H]1C[C@H](c2c[nH]c3c(C(N)=O)cc(-c4ccco4)cc23)CCS1(=O)=O (racemic) [Example 244, (racemic)-5-(2-Furanyl)-3-[trans-2-(1-methylethyl)-1,1-dioxidotetrahydro-2H-thiopyran-4-yl]-1H-indole-7-carboxamide] | 5.01 to 1000 nM | –
23 | CN(C)c1ccc(-c2cc(C(N)=O)c3[nH]cc(C4CCS(=O)(=O)CC4)c3c2)cn1 [Example 67, 5-[6-(Dimethylamino)-3-pyridinyl]-3-(1,1-dioxidotetrahydro-2H-thiopyran-4-yl)-1H-indole-7-carboxamide] | 5.01 to 1000 nM | –
24 | NC(=O)c1cc(-c2ccc(F)cc2)cc2c(C3CCS(=O)(=O)C3)c[nH]c12 (racemic) [Example 171, (rac)-3-(1,1-Dioxidotetrahydro-3-thienyl)-5-(4-fluorophenyl)-1H-indole-7-carboxamide] | 5.01 to 1000 nM | –
25 | NC(=O)c1cc(-c2csc(CN3CCC3)c2)cc2c(C3CC4CCC(C3)S4(=O)=O)c[nH]c12 (stereo not drawn) [Example 204, 3-[(3-endo)-8,8-Dioxido-8-thiabicyclo[3.2.1]oct-3-yl]-5-[5-(1-azetidinylmethyl)-3-thienyl]-1H-indole-7-carboxamide] | – | 0 to 100%
26 | NC(=O)c1cc(-c2ccccc2)c(F)c2c(C3CCS(=O)(=O)CC3)c[nH]c12 [Example 169, 3-(1,1-Dioxidotetrahydro-2H-thiopyran-4-yl)-4-fluoro-5-phenyl-1H-indole-7-carboxamide] | 5.01 to 1000 nM | –
27 | NC(=O)c1cc(-c2ccoc2)cc2c(CC3CCS(=O)(=O)CC3)c[nH]c12 [Example 253, 3-[(1,1-dioxidotetrahydro-2H-thiopyran-4-yl)methyl]-5-(3-furanyl)-1H-indole-7-carboxamide] | 5.01 to 1000 nM | –
28 | NC(=O)c1cc(-c2ccco2)cc2c([C@H]3CCS(=O)(=O)[C@@H](c4ccccc4)C3)c[nH]c12 (racemic) [Example 251, 3-(1,1-Dioxido-2-phenyltetrahydro-2H-thiopyran-4-yl)-5-(2-furanyl)-1H-indole-7-carboxamide] | 5.01 to 1000 nM | –
29 | CC(C)[C@H]1CC(c2c[nH]c3c(C(N)=O)cc(-c4ccoc4)cc23)CCS1(=O)=O (mixture of isomers) [Example 243, (mixture of isomers)-5-(3-Furanyl)-3-[trans-2-(1-methylethyl)-1,1-dioxidotetrahydro-2H-thiopyran-4-yl]-1H-indole-7-carboxamide] | – | 0 to 100%
30 | CC(C)N(C)Cc1cc(-c2cc(C(N)=O)c3[nH]cc(C4CCS(=O)(=O)CC4)c3c2)cs1 [Example 74, 3-(1,1-Dioxidotetrahydro-2H-thiopyran-4-yl)-5-(5-{[methyl(1-methylethyl)amino]methyl}-3-thienyl)-1H-indole-7-carboxamide] | 5.01 to 1000 nM | –
31 | CC(C)(O)CCc1ccc(-c2cc(C(N)=O)c3[nH]cc(C4CCS(=O)(=O)CC4)c3c2)s1 [Example 66, 3-(1,1-Dioxidotetrahydro-2H-thiopyran-4-yl)-5-[5-(3-hydroxy-3-methylbutyl)-2-thienyl]-1H-indole-7-carboxamide] | 5.01 to 1000 nM | –
32 | NC(=O)c1cc(-c2csc(CN3CCCCCC3)c2)cc2c(C3CCS(=O)(=O)C3)c[nH]c12 (centres unmarked) [Example 186, 3-(1,1-Dioxidotetrahydro-3-thienyl)-5-[5-(hexahydro-1H-azepin-1-ylmethyl)-3-thienyl]-1H-indole-7-carboxamide] | – | 0 to 100%
